Source: article PMC7724566, “Prospects for Clinical Development of Stat5 Inhibitor IST5-002: High Transcriptomic Specificity in Prostate Cancer and Low Toxicity In Vivo” (Cancers, 2020)

Assays:
Stat5 = assay: Ligand-induced Stat5 dimerization, two cell-based assays (summary); design: species or system human; conditions: read-out: IC50, suppression of ligand-induced Stat5 dimerization; both cell-based dimerization assays
Description: Down-regulation of Stat5 phosphorylation by IST5 can theoretically be caused by IST5 blocking Stat5 monomer docking to the activated receptor-Jak2 complex (Figure 1) and/or by IST5 inhibition of Jak2 kinase activity. […] To further investigate whether IST5 is able to disrupt dimerization of Stat5 molecules, we employed two separate cell-based assays. […] Because both phosphorylation and dimerization of Stat5 were inhibited at similar concentrations of IST5, it is difficult to determine whether disruption of Stat5 dimerization by IST5 is caused by suppression of Stat5 phosphorylation or a direct effect of IST5 in hindering Stat5 dimer-formation or both events occurring at the same time in the cell. However, it is known that heteromolecular interactions are easier to disrupt than interactions between two Stat5 monomers implying that the primary mechanism of action of IST5 may be suppression of Stat5 docking to the receptor-kinase complex. It is important to note that bypassing tyrosine kinases responsible for Stat5 phosphorylation by utilizing direct Stat5 inhibitor would be advantageous for therapy development for Stat5-regulated cancers because targeting Stat5 directly is likely to cause less off-target side effects than targeting kinases or cell surface receptors.

PC xenograft tumors = tested on: PC xenograft tumors; design: method as in PMID 18316550, PMID 23942095, PMID 26362718, PMID 20966544, PMID 20233708; conditions: cited from earlier work
CWR22Pc cells = assay: RNA-seq transcriptome, IST5 vs. genetic Stat5 knockdown; assay type: cell-based, human; conditions: 3 days
Description: In order to evaluate the potential of IST5 for further optimization for clinical development, we compared the IST5-induced transcriptome to that of Stat5 genetic knockdown in PC cells. Stat5 expression was inhibited by lenti-viral expression of shStat5 or shCtrl in CWR22Pc cells for 3 days (Figure 2A). CWR22Pc cells were chosen as the model system because the cell line expresses both Stat5 and androgen receptor and mimics the course of disease progression in PC patient. When grown in mice as xenograft tumors, CWR22Pc cells form androgen-dependent tumors which regress in response to androgen deprivation but later recur as Castrate-Resistant Prostate Cancer (CRPC) tumors. In parallel wells, CWR22Pc cells were treated with IST5 or vehicle for 3 days. We performed RNA-seq to profile the gene expression changes and received an average of 22.4 million paired-end clean reads from each sample (Table S5). […] Most importantly, the similarity between the transcriptomes regulated by shStat5 vs. IST5 was remarkably high, with Pearson correlation coefficient ranging from 0.98–0.99 (Figure 2C).
Figure 2 IST5 show high transcriptional specificity in prostate cancer cells. […]
Total RNA of each replicate sample was isolated using RNeasy Micro Kit (QIAGEN, Valencia, CA, USA) and reverse transcribed with Super-Script III Reverse Transcriptase (Life Technologies, Brown Deer, WI, USA) following the manufacturer’s instructions. […] RNA quality was assessed by Agilent Bioanalyzer 2100 (Agilent, Santa Clara, CA, USA), and RNA integrity number (RIN) ≥7.5 was qualified for subsequent RNA-seq analysis.
We performed RNA-seq to evaluate the transcriptomes regulated by IST5 vs. genetic knockdown (lenti-shStat5) of Stat5 with corresponding controls (vehicle or lenti-shCtrl). […] Sequencing data (fastq files) were quantified with a software tool Salmon (version 1.1.0). […] Transcripts with less than 10 median read-counts were filtered out. […] Statistical significance was determined at a FDR threshold <0.01. […]

[1] = tested on: patient-derived clinical PCs; design: method as in PMID 26026053, PMID 31548294; conditions: 3D tumor explant cultures; cited from earlier work
PC cells = tested on: PC cells; design: method as in PMID 18316550, PMID 23942095, PMID 26362718, PMID 20966544, PMID 20233708; conditions: cited from earlier work
[2] = 6 µM, FDR <0.01, fold change >2 or <−2

O=P(O)(O)OCC1OC(n2cnc3c(NCc4ccccc4)ncnc32)C(O)C1O (stereo not shown) [IST5]
IC50 (Stat5): 1000 to 1300 nM
growth of PC xenograft tumors in mice in vivo (PC xenograft tumors): block growth
transcripts down-regulated (CWR22Pc cells; [2]): 765
transcripts upregulated (CWR22Pc cells; [2]): 324
Pearson correlation coefficient of transcriptomes regulated by shStat5 vs. IST5 (CWR22Pc cells; IST5 6 µM): 0.98–0.99
apoptotic death in patient-derived clinical PCs ex vivo [1]: induce apoptotic death
apoptotic death of PC cells (PC cells): induce extensive apoptotic death
